According to the NIST ThermoML archive (doi:10.1021/acs.jced.6b00430):

Test: xn = mol fraction of the nth substance listed
Conditions: 100 kPa, Liquid; for electrical conductivity: Alternating current cell with electrodes; for viscosity: Concentric cylinders viscometry; for mass density: Vibrating tube method

O=[PH](O)O [phosphonic acid] + CN(C)C=O
Conditions	electrical conductivity [S/m]	mass density [kg/m3]	viscosity [mPa·s]
298.15 K, x1 = 0.0911	–	992.53	–
298.15 K, x1 = 0.1181	0.0572	–	–
298.15 K, x1 = 0.1365	–	1016.46	–
298.15 K, x1 = 0.1798	–	1040.55	–
298.15 K, x1 = 0.1829	–	1041.85	–
298.15 K, x1 = 0.1973	–	–	2.92
298.15 K, x1 = 0.2293	–	1069.29	–
298.15 K, x1 = 0.2507	–	–	4.75
298.15 K, x1 = 0.291	–	1104.79	–
298.15 K, x1 = 0.2984	0.0925	–	7.07
298.15 K, x1 = 0.3115	–	–	7.88
298.15 K, x1 = 0.3298	0.0934	1129.74	–
298.15 K, x1 = 0.3442	–	1137.78	–
298.15 K, x1 = 0.3491	–	–	11.5
298.15 K, x1 = 0.3712	–	1154.77	–
298.15 K, x1 = 0.3937	–	1169.25	–
298.15 K, x1 = 0.3968	0.129	–	17.6
298.15 K, x1 = 0.3988	–	–	17.8
298.15 K, x1 = 0.4107	–	1182.13	20.7
298.15 K, x1 = 0.421	–	1188.34	–
298.15 K, x1 = 0.4479	0.141	1207.13	28.7
298.15 K, x1 = 0.4707	–	1221.83	–
298.15 K, x1 = 0.493	–	1235.89	–
298.15 K, x1 = 0.4968	–	–	41.6
298.15 K, x1 = 0.5074	–	1244.77	43.9
298.15 K, x1 = 0.5196	–	1255.1	–
298.15 K, x1 = 0.5429	–	1270.6	–
298.15 K, x1 = 0.5503	–	–	62.4
298.15 K, x1 = 0.5724	–	1292.1	–
298.15 K, x1 = 0.5761	0.216	–	73.5
298.15 K, x1 = 0.5925	–	1306.05	–
298.15 K, x1 = 0.5993	–	–	80.5
298.15 K, x1 = 0.6245	–	1328.62	–
298.15 K, x1 = 0.6261	–	–	90
298.15 K, x1 = 0.6316	0.294	–	95.2
298.15 K, x1 = 0.6478	–	–	102.8
298.15 K, x1 = 0.6554	0.333	1355.76	103.3
298.15 K, x1 = 0.6753	–	1364.54	–
298.15 K, x1 = 0.682	0.411	–	113.5
298.15 K, x1 = 0.6923	–	1378.85	–
298.15 K, x1 = 0.7142	–	1399.02	122.7
298.15 K, x1 = 0.725	–	1401.52	–
298.15 K, x1 = 0.7592	–	1432.85	–
298.15 K, x1 = 0.7694	0.663	1444	139.8
298.15 K, x1 = 0.7832	0.702	–	142.5
298.15 K, x1 = 0.7845	–	1450.65	–
308.15 K, x1 = 0.0911	–	983.17	–
308.15 K, x1 = 0.1181	0.0647	–	–
308.15 K, x1 = 0.1365	–	1007.16	–
308.15 K, x1 = 0.1798	–	1031.35	–
308.15 K, x1 = 0.1829	–	1032.63	–
308.15 K, x1 = 0.1973	–	–	2.49
308.15 K, x1 = 0.2293	–	1060.16	–
308.15 K, x1 = 0.2507	–	–	3.92
308.15 K, x1 = 0.291	–	1095.72	–
308.15 K, x1 = 0.2984	0.116	–	5.72
308.15 K, x1 = 0.3115	–	–	6.3
308.15 K, x1 = 0.3298	0.119	1120.73	–
308.15 K, x1 = 0.3442	–	1128.83	–
308.15 K, x1 = 0.3491	–	–	9.06
308.15 K, x1 = 0.3712	–	1145.98	–
308.15 K, x1 = 0.3937	–	1160.41	–
308.15 K, x1 = 0.3968	0.169	–	13.3
308.15 K, x1 = 0.3988	–	–	14
308.15 K, x1 = 0.4107	–	1173.31	15.4
308.15 K, x1 = 0.421	–	1179.34	–
308.15 K, x1 = 0.4479	0.19	1198.35	20.9
308.15 K, x1 = 0.4707	–	1213.06	–
308.15 K, x1 = 0.493	–	1227.23	–
308.15 K, x1 = 0.4968	–	–	29.2
308.15 K, x1 = 0.5074	–	1236.13	30.3
308.15 K, x1 = 0.5196	–	1246.49	–
308.15 K, x1 = 0.5429	–	1262.02	–
308.15 K, x1 = 0.5503	–	–	42.4
308.15 K, x1 = 0.5724	–	1283.54	–
308.15 K, x1 = 0.5761	0.301	–	48.6
308.15 K, x1 = 0.5925	–	1297.57	–
308.15 K, x1 = 0.5993	–	–	51
308.15 K, x1 = 0.6245	–	1320.2	–
308.15 K, x1 = 0.6261	–	–	59.4
308.15 K, x1 = 0.6316	0.41	–	61.2
308.15 K, x1 = 0.6478	–	–	64.5
308.15 K, x1 = 0.6554	0.476	1347.39	66.1
308.15 K, x1 = 0.6753	–	1356.23	–
308.15 K, x1 = 0.682	0.589	–	72.4
308.15 K, x1 = 0.6923	–	1370.56	–
308.15 K, x1 = 0.7142	–	1390.77	78.3
308.15 K, x1 = 0.725	–	1393.35	–
308.15 K, x1 = 0.7592	–	1424.69	–
308.15 K, x1 = 0.7694	0.959	1435.87	87.4
308.15 K, x1 = 0.7832	1.02	–	88.2
308.15 K, x1 = 0.7845	–	1442.56	–
318.15 K, x1 = 0.0911	–	973.7	–
318.15 K, x1 = 0.1181	0.0725	–	–
318.15 K, x1 = 0.1365	–	997.83	–
318.15 K, x1 = 0.1798	–	1022.15	–
318.15 K, x1 = 0.1829	–	1023.41	–
318.15 K, x1 = 0.1973	–	–	2.16
318.15 K, x1 = 0.2293	–	1051.04	–
318.15 K, x1 = 0.2507	–	–	3.35
318.15 K, x1 = 0.291	–	1086.67	–
318.15 K, x1 = 0.2984	0.142	–	4.77
318.15 K, x1 = 0.3115	–	–	5.21
318.15 K, x1 = 0.3298	0.148	1111.75	–
318.15 K, x1 = 0.3442	–	1119.89	–
318.15 K, x1 = 0.3491	–	–	7.26
318.15 K, x1 = 0.3712	–	1137.21	–
318.15 K, x1 = 0.3937	–	1151.58	–
318.15 K, x1 = 0.3968	0.217	–	10.5
318.15 K, x1 = 0.3988	–	–	10.6
318.15 K, x1 = 0.4107	–	1164.51	12
318.15 K, x1 = 0.4479	0.25	–	15.8
318.15 K, x1 = 0.4968	–	–	21.2
318.15 K, x1 = 0.5074	–	–	22.2
318.15 K, x1 = 0.5503	–	–	30
318.15 K, x1 = 0.5761	0.397	–	34.1
318.15 K, x1 = 0.5993	–	–	35.2
318.15 K, x1 = 0.6261	–	–	41.2
318.15 K, x1 = 0.6316	0.548	–	42
318.15 K, x1 = 0.6478	–	–	43.6
318.15 K, x1 = 0.6554	0.626	–	45
318.15 K, x1 = 0.682	0.81	–	49
318.15 K, x1 = 0.7142	–	–	51.4
318.15 K, x1 = 0.7694	1.33	–	57.3
318.15 K, x1 = 0.7832	1.41	–	58.4
